Data from ChEMBL document CHEMBL1201862, “PubChem BioAssay data set” (2004).
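Results reflect a 48-hour exposure of cells in 96-well plates to compound at five concentrations. GI50 = concentration required for 50% inhibition of growth.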 Activity calls are given as the source filed them. Rule as the data show it: active = GI50 up to about 1.1 µM and inactive = higher.

Legend:
Experiment in all cases: NCI tumour cell line growth inhibition, 48 h
M14 = test system: M14
U-251 = test system: U-251
SF-268 = test system: SF-268
LOX IMVI = test system: LOX IMVI
SR = test system: SR
A498 = test system: A498
IGROV-1 = test system: IGROV-1
HCT-116 = test system: HCT-116
SK-MEL-2 = test system: SK-MEL-2
SF-295 = test system: SF-295
HT-29 = test system: HT-29
SK-MEL-28 = test system: SK-MEL-28
HOP-92 = test system: HOP-92
DLD-1 = test system: DLD-1
OVCAR-8 = test system: OVCAR-8
NCI-H226 = test system: NCI-H226
RXF 393 = test system: RXF 393
SW-620 = test system: SW-620
HOP-62 = test system: HOP-62

Measured: GI50

O=C(Nc1ccc([N+](=O)[O-])cc1)C1C(=O)C(=O)N(c2ccc([N+](=O)[O-])cc2)C1=O (centres undefined)
inactive: M14 16.2 µM | U-251 > 100 µM | SF-268 > 100 µM | LOX IMVI 16.1 µM | SR 59 µM | A498 > 100 µM | IGROV-1 > 100 µM | HCT-116 80.2 µM | SK-MEL-2 > 100 µM | SF-295 80.2 µM | HT-29 > 100 µM | SK-MEL-28 > 100 µM | HOP-92 > 100 µM | DLD-1 > 100 µM | OVCAR-8 > 100 µM | NCI-H226 > 100 µM | RXF 393 > 100 µM | SW-620 17.6 µM | HOP-62 > 100 µM

CC1CCC(=O)NCCCCC(=O)N1 (centres undefined)
inactive: M14 > 100 µM | U-251 > 100 µM | SF-268 > 100 µM | LOX IMVI > 100 µM | SR > 100 µM | A498 > 100 µM | IGROV-1 > 100 µM | HCT-116 > 100 µM | SK-MEL-2 > 100 µM | SF-295 > 100 µM | HT-29 > 100 µM | SK-MEL-28 > 100 µM | HOP-92 > 100 µM | DLD-1 > 100 µM | OVCAR-8 > 100 µM | NCI-H226 > 100 µM | RXF 393 > 100 µM | SW-620 > 100 µM | HOP-62 > 100 µM

CCOC(=O)c1cc2c(nc1N)-c1ncccc1CC2
inactive: M14 > 100 µM | U-251 43.8 µM | SF-268 > 100 µM | LOX IMVI 65.6 µM | SR 18.7 µM | A498 76.7 µM | IGROV-1 49.4 µM | HCT-116 44.3 µM | SK-MEL-2 > 100 µM | SF-295 54.5 µM | HT-29 16.4 µM | SK-MEL-28 36.6 µM | HOP-92 > 100 µM | DLD-1 52.7 µM | OVCAR-8 83.6 µM | NCI-H226 66.2 µM | RXF 393 > 100 µM | SW-620 59.8 µM | HOP-62 83.8 µM

C/C=C1\C=C(OC)CN(CCc2c[nH]c3ccccc23)C1
inactive: M14 27.7 µM | SF-268 19 µM | LOX IMVI 23.2 µM | SR 61.8 µM | A498 44 µM | IGROV-1 > 100 µM | HCT-116 36.4 µM | SK-MEL-2 43.3 µM | SF-295 27.9 µM | HT-29 25.4 µM | DLD-1 > 100 µM | OVCAR-8 > 100 µM | NCI-H226 27.2 µM | SW-620 70.3 µM | HOP-62 73.5 µM

CCOP(=O)(C/C(O)=C1\C(=O)C(CCCCNC(=O)OC(C)(C)C)N(Cc2ccccc2)C1=O)OCC (centres undefined)
inactive: M14 > 100 µM | U-251 > 100 µM | SF-268 > 100 µM | LOX IMVI > 100 µM | SR 69.2 µM | A498 > 100 µM | IGROV-1 > 100 µM | HCT-116 > 100 µM | SK-MEL-2 > 100 µM | SF-295 > 100 µM | HT-29 > 100 µM | SK-MEL-28 > 100 µM | DLD-1 > 100 µM | OVCAR-8 > 100 µM | NCI-H226 > 100 µM | RXF 393 > 100 µM | HOP-62 > 100 µM

NC(=O)N/N=C(\Cc1nc2ccc(C(=O)c3ccccc3)cc2nc1O)C(=O)Nc1ccc(Br)cc1
inactive: M14 > 100 µM | U-251 > 100 µM | SF-268 > 100 µM | LOX IMVI > 100 µM | SR > 100 µM | A498 > 100 µM | IGROV-1 > 100 µM | HCT-116 > 100 µM | SK-MEL-2 > 100 µM | SF-295 > 100 µM | HT-29 > 100 µM | SK-MEL-28 > 100 µM | HOP-92 > 100 µM | DLD-1 > 100 µM | OVCAR-8 > 100 µM | NCI-H226 86.3 µM | RXF 393 > 100 µM | SW-620 > 100 µM | HOP-62 > 100 µM

CCc1cccc(C)c1NC(=O)CCc1nnc(S)[nH]1
inactive: M14 > 100 µM | U-251 > 100 µM | SF-268 > 100 µM | LOX IMVI > 100 µM | SR > 100 µM | IGROV-1 > 100 µM | HCT-116 > 100 µM | SK-MEL-2 > 100 µM | SF-295 > 100 µM | HT-29 > 100 µM | SK-MEL-28 > 100 µM | HOP-92 > 100 µM | DLD-1 > 100 µM | OVCAR-8 > 100 µM | NCI-H226 > 100 µM | RXF 393 > 100 µM | SW-620 > 100 µM | HOP-62 > 100 µM

COc1cccc(NC(=S)Nn2c(C)nc3ccccc3c2=O)c1
inactive: M14 > 100 µM | U-251 > 100 µM | SF-268 > 100 µM | LOX IMVI > 100 µM | SR > 100 µM | A498 > 100 µM | IGROV-1 > 100 µM | HCT-116 > 100 µM | SK-MEL-2 > 100 µM | SF-295 > 100 µM | HT-29 > 100 µM | SK-MEL-28 > 100 µM | HOP-92 > 100 µM | DLD-1 > 100 µM | OVCAR-8 > 100 µM | NCI-H226 80.2 µM | RXF 393 > 100 µM | SW-620 > 100 µM | HOP-62 > 100 µM

O=C(O)c1c[nH]cc1C(=O)O
inactive: M14 > 100 µM | U-251 > 100 µM | SF-268 > 100 µM | LOX IMVI > 100 µM | SR > 100 µM | A498 > 100 µM | IGROV-1 > 100 µM | HCT-116 > 100 µM | SF-295 > 100 µM | HT-29 > 100 µM | HOP-92 > 100 µM | DLD-1 > 100 µM | OVCAR-8 > 100 µM | NCI-H226 > 100 µM | RXF 393 > 100 µM | SW-620 > 100 µM | HOP-62 > 100 µM

CN1CCCNCCN(CCc2ccccn2)CCCN(C)CC1
inactive: M14 > 95.7 µM | U-251 > 94.6 µM | SF-268 > 100 µM | LOX IMVI > 50.1 µM | SR 29.1 µM | A498 > 100 µM | IGROV-1 > 100 µM | HCT-116 > 66.2 µM | SK-MEL-2 > 100 µM | SF-295 > 100 µM | HT-29 > 100 µM | SK-MEL-28 > 100 µM | HOP-92 > 100 µM | DLD-1 > 88.1 µM | OVCAR-8 > 100 µM | NCI-H226 > 100 µM | SW-620 > 33.8 µM | HOP-62 > 100 µM

Cc1cc2c(=O)n(-c3ccc(F)cc3)c(C)nc2c(C(=O)O)c1C
inactive: M14 > 100 µM | U-251 > 100 µM | SF-268 > 100 µM | LOX IMVI > 100 µM | SR > 100 µM | A498 > 100 µM | IGROV-1 > 100 µM | HCT-116 > 100 µM | SK-MEL-2 > 100 µM | SF-295 > 100 µM | HT-29 > 100 µM | SK-MEL-28 > 100 µM | HOP-92 > 100 µM | DLD-1 > 100 µM | OVCAR-8 > 100 µM | NCI-H226 > 100 µM | RXF 393 > 100 µM | SW-620 > 100 µM | HOP-62 > 100 µM
